In patent publication US20160038468A1 (priority 2013, published 2016):
≈ marks a conversion by molar mass, not a printed value. Where two headings read alike, the source gives them in different places.

Columns and labels:
Type in all cases: cell-based
Mobiluncus all species = assay: Agar dilution MIC (CLSI), Mobiluncus all species
M. curtisii = assay: Agar dilution MIC (CLSI), M. curtisii vaginal isolates; conditions: for Number of strains with indicated MIC: 14 samples
Prevotella amnii = assay: Agar dilution MIC (CLSI), Prevotella amnii vaginal isolates; conditions: for Number of strains with indicated MIC: 33 samples; for MIC: read-out: Minimal Inhibitory Concentration (MIC)
Prevotella timonensis = assay: Agar dilution MIC (CLSI), Prevotella timonensis vaginal isolates; conditions: for MIC: read-out: Minimal Inhibitory Concentration (MIC); for Number of strains with indicated MIC: 33 samples
[1] = Hoylesella timonensis, # tested 33

CO[C@H]1/C=C/O[C@@]2(C)Oc3c(C)c(O)c4c(O)c(c5c(nc6cc(C)ccn65)c4c3C2=O)NC(=O)/C(C)=C\C=C\[C@H](C)[C@H](O)[C@@H](C)[C@@H](O)[C@@H](C)[C@H](OC(C)=O)[C@@H]1C [Rifaximin]
activity on Mobiluncus species (Mobiluncus all species): had activity | MIC50 (Mobiluncus all species; # tested 40): 0.0075 µg/mL (≈ 0.00954 µM) | MIC90 (Mobiluncus all species; # tested 40): 0.015 µg/mL (≈ 0.0191 µM) | MIC Range (Mobiluncus all species; # tested 40): 0.0075 to 0.03 µg/mL | Susceptible (Mobiluncus all species; number (%) of isolates, # tested 40): 40 (100) μg/ml | Number of strains with indicated MIC (M. curtisii; MIC 0.015 μg/ml): 12 | Number of strains with indicated MIC (M. curtisii; MIC 0.03 μg/ml): 2 | MIC (M. curtisii; individual isolates recovered from the vagina 2009-2012, one line per isolate (id in c0/c1 of the row), read-out: Minimal Inhibitory Concentration (MIC)): 0.015 µg/mL (≈ 0.0191 µM) | MIC Range (Prevotella amnii; # tested 33): 0.015 to 0.03 µg/mL | Number of strains with indicated MIC (Prevotella amnii; MIC 0.015 μg/ml): 19 | Number of strains with indicated MIC (Prevotella amnii; MIC 0.03 μg/ml): 14 | MIC (Prevotella amnii; Prevotella amnii, isolate 601203 4): 0.015 µg/mL (≈ 0.0191 µM) | MIC (Prevotella amnii; Prevotella amnii, isolate 601256 11): 0.03 µg/mL (≈ 0.0382 µM) | MIC (Prevotella amnii; Prevotella amnii, isolate 601258 25): 0.015 µg/mL (≈ 0.0191 µM) | MIC (Prevotella amnii; Prevotella amnii, isolate 601261 E): 0.015 µg/mL (≈ 0.0191 µM) | MIC (Prevotella amnii; Prevotella amnii, isolate 601266 20): 0.03 µg/mL (≈ 0.0382 µM) | MIC (Prevotella amnii; Prevotella amnii, isolate 601278 10): 0.015 µg/mL (≈ 0.0191 µM) | MIC (Prevotella amnii; Prevotella amnii, isolate 601287 HH): 0.015 µg/mL (≈ 0.0191 µM) | MIC (Prevotella amnii; Prevotella amnii, isolate 601291 41): 0.015 µg/mL (≈ 0.0191 µM) | MIC (Prevotella amnii; Prevotella amnii, isolate 601293 29): 0.03 µg/mL (≈ 0.0382 µM) | MIC (Prevotella amnii; Prevotella amnii, isolate 601305 A): 0.03 µg/mL (≈ 0.0382 µM) | MIC (Prevotella amnii; Prevotella amnii, isolate 601311 K): 0.03 µg/mL (≈ 0.0382 µM) | MIC (Prevotella amnii; Prevotella amnii, isolate 601314 19): 0.03 µg/mL (≈ 0.0382 µM) | MIC (Prevotella amnii; Prevotella amnii, isolate 601318 G): 0.03 µg/mL (≈ 0.0382 µM) | MIC (Prevotella amnii; Prevotella amnii, isolate 601336 33): 0.015 µg/mL (≈ 0.0191 µM) | MIC (Prevotella amnii; Prevotella amnii, isolate 601340 37): 0.015 µg/mL (≈ 0.0191 µM) | MIC (Prevotella amnii; Prevotella amnii, isolate 601341 H): 0.015 µg/mL (≈ 0.0191 µM) | MIC (Prevotella amnii; Prevotella amnii, isolate 601350 A): 0.015 µg/mL (≈ 0.0191 µM) | MIC (Prevotella amnii; Prevotella amnii, isolate 601365 6): 0.015 µg/mL (≈ 0.0191 µM) | MIC (Prevotella amnii; Prevotella amnii, isolate 601368 24): 0.015 µg/mL (≈ 0.0191 µM) | MIC (Prevotella amnii; Prevotella amnii, isolate 601369 13): 0.03 µg/mL (≈ 0.0382 µM) | MIC (Prevotella amnii; Prevotella amnii, isolate 601375 L): 0.015 µg/mL (≈ 0.0191 µM) | MIC (Prevotella amnii; Prevotella amnii, isolate 601377 9): 0.03 µg/mL (≈ 0.0382 µM) | MIC (Prevotella amnii; Prevotella amnii, isolate 601379 24): 0.03 µg/mL (≈ 0.0382 µM) | MIC (Prevotella amnii; Prevotella amnii, isolate 601388 G): 0.03 µg/mL (≈ 0.0382 µM) | MIC (Prevotella amnii; Prevotella amnii, isolate 601399 10): 0.015 µg/mL (≈ 0.0191 µM) | MIC (Prevotella amnii; Prevotella amnii, isolate 601405 A): 0.015 µg/mL (≈ 0.0191 µM) | MIC (Prevotella amnii; Prevotella amnii, isolate 601411 L): 0.03 µg/mL (≈ 0.0382 µM) | MIC (Prevotella amnii; Prevotella amnii, isolate 601413 10): 0.015 µg/mL (≈ 0.0191 µM) | MIC (Prevotella amnii; Prevotella amnii, isolate 601418 27): 0.03 µg/mL (≈ 0.0382 µM) | MIC (Prevotella amnii; Prevotella amnii, isolate 601426 A): 0.015 µg/mL (≈ 0.0191 µM) | MIC (Prevotella amnii; Prevotella amnii, isolate 601430 14): 0.015 µg/mL (≈ 0.0191 µM) | MIC (Prevotella amnii; Prevotella amnii, isolate 601434 13): 0.015 µg/mL (≈ 0.0191 µM) | MIC (Prevotella amnii; Prevotella amnii, isolate 601458 13): 0.03 µg/mL (≈ 0.0382 µM) | MIC50 (Prevotella amnii; Prevotella amnii, # tested 33): 0.015 µg/mL (≈ 0.0191 µM) | MIC90 (Prevotella amnii; Prevotella amnii, # tested 33): 0.03 µg/mL (≈ 0.0382 µM) | MIC Range (Prevotella timonensis; # tested 33): 0.00375 to 0.06 µg/mL | MIC (Prevotella timonensis; Hoylesella timonensis, isolate 301212 10): 0.00375 µg/mL (≈ 0.00477 µM) | MIC (Prevotella timonensis; Hoylesella timonensis, isolate 601080 5): 0.0075 µg/mL (≈ 0.00954 µM) | MIC (Prevotella timonensis; Hoylesella timonensis, isolate 601088 15): 0.015 µg/mL (≈ 0.0191 µM) | MIC (Prevotella timonensis; Hoylesella timonensis, isolate 601093 24): 0.015 µg/mL (≈ 0.0191 µM) | MIC (Prevotella timonensis; Hoylesella timonensis, isolate 601097 S): 0.015 µg/mL (≈ 0.0191 µM) | MIC (Prevotella timonensis; Hoylesella timonensis, isolate 601098 B): 0.015 µg/mL (≈ 0.0191 µM) | MIC (Prevotella timonensis; Hoylesella timonensis, isolate 601157 19): 0.015 µg/mL (≈ 0.0191 µM) | MIC (Prevotella timonensis; Hoylesella timonensis, isolate 601167 13): 0.06 µg/mL (≈ 0.0763 µM) | MIC (Prevotella timonensis; Hoylesella timonensis, isolate 601170 13): 0.015 µg/mL (≈ 0.0191 µM) | MIC (Prevotella timonensis; Hoylesella timonensis, isolate 601175 J): 0.015 µg/mL (≈ 0.0191 µM) | MIC (Prevotella timonensis; Hoylesella timonensis, isolate 601178 19): 0.015 µg/mL (≈ 0.0191 µM) | MIC (Prevotella timonensis; Hoylesella timonensis, isolate 601194 9B): 0.0075 µg/mL (≈ 0.00954 µM) | MIC (Prevotella timonensis; Hoylesella timonensis, isolate 601214 A): 0.015 µg/mL (≈ 0.0191 µM) | MIC (Prevotella timonensis; Hoylesella timonensis, isolate 601226 C): 0.015 µg/mL (≈ 0.0191 µM) | MIC (Prevotella timonensis; Hoylesella timonensis, isolate 601234 B): 0.015 µg/mL (≈ 0.0191 µM) | MIC (Prevotella timonensis; Hoylesella timonensis, isolate 601245 16): 0.015 µg/mL (≈ 0.0191 µM) | MIC (Prevotella timonensis; Hoylesella timonensis, isolate 601252 B): 0.015 µg/mL (≈ 0.0191 µM) | MIC (Prevotella timonensis; Hoylesella timonensis, isolate 601255 17): 0.015 µg/mL (≈ 0.0191 µM) | MIC (Prevotella timonensis; Hoylesella timonensis, isolate 601266 18): 0.015 µg/mL (≈ 0.0191 µM) | MIC (Prevotella timonensis; Hoylesella timonensis, isolate 601278 12): 0.015 µg/mL (≈ 0.0191 µM) | MIC (Prevotella timonensis; Hoylesella timonensis, isolate 601281 22): 0.015 µg/mL (≈ 0.0191 µM) | MIC (Prevotella timonensis; Hoylesella timonensis, isolate 601287 H): 0.015 µg/mL (≈ 0.0191 µM) | MIC (Prevotella timonensis; Hoylesella timonensis, isolate 601293 13): 0.015 µg/mL (≈ 0.0191 µM) | MIC (Prevotella timonensis; Hoylesella timonensis, isolate 601311 B): 0.015 µg/mL (≈ 0.0191 µM) | MIC (Prevotella timonensis; Hoylesella timonensis, isolate 601367 E): 0.015 µg/mL (≈ 0.0191 µM) | MIC (Prevotella timonensis; Hoylesella timonensis, isolate 601370 13): 0.03 µg/mL (≈ 0.0382 µM) | MIC (Prevotella timonensis; Hoylesella timonensis, isolate 601388 S): 0.015 µg/mL (≈ 0.0191 µM) | MIC (Prevotella timonensis; Hoylesella timonensis, isolate 601401 J): 0.015 µg/mL (≈ 0.0191 µM) | MIC (Prevotella timonensis; Hoylesella timonensis, isolate 601411 S): 0.015 µg/mL (≈ 0.0191 µM) | MIC (Prevotella timonensis; Hoylesella timonensis, isolate 601414 O): 0.03 µg/mL (≈ 0.0382 µM) | MIC (Prevotella timonensis; Hoylesella timonensis, isolate 601422 39): 0.015 µg/mL (≈ 0.0191 µM) | MIC (Prevotella timonensis; Hoylesella timonensis, isolate 601429 11): 0.015 µg/mL (≈ 0.0191 µM) | MIC (Prevotella timonensis; Hoylesella timonensis, isolate 601459 21): 0.015 µg/mL (≈ 0.0191 µM) | MIC50 (Prevotella timonensis; [1]): 0.015 µg/mL (≈ 0.0191 µM) | MIC90 (Prevotella timonensis; [1]): 0.015 µg/mL (≈ 0.0191 µM) | Number of strains with indicated MIC (Prevotella timonensis; MIC 0.00375 μg/ml): 1 | Number of strains with indicated MIC (Prevotella timonensis; MIC 0.0075 μg/ml): 2 | Number of strains with indicated MIC (Prevotella timonensis; MIC 0.015 μg/ml): 27 | Number of strains with indicated MIC (Prevotella timonensis; MIC 0.03 μg/ml): 2 | Number of strains with indicated MIC (Prevotella timonensis; MIC 0.06 μg/ml): 1
